Laboratory results from patent EP4810494A1, “HPK1 DEGRADATION AGENT AND USE THEREOF IN FIELD OF MEDICINE” (Haisco Pharmaceutical Group Co., Ltd., priority 2023, dated 2025).
Counter-ions that a name gives are not always drawn. Like-named read-outs stand apart in the source and are kept apart here.

Legend:
HPK1 kinase = molecular target: T1, HPK1 kinase (Homo sapiens, UniProt Q92918); assay: HPK1 kinase assay (1 mM ATP); type: biochemical
T1 construct: purchased Carna 07-410
T1 sequence (Q92918 1-346 limits assumed): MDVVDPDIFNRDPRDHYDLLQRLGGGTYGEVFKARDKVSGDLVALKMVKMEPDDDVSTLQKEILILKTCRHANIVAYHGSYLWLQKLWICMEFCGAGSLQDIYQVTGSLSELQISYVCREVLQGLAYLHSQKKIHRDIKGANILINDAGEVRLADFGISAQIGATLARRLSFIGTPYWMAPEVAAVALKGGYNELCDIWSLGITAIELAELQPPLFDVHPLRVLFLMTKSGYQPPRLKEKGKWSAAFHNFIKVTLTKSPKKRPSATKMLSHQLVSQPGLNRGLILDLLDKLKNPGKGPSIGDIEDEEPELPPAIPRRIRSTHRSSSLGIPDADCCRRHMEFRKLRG
Description: Test example 5: HPK1 kinase assay (1 mM ATP)
The kinase HPK1 (Carna, Cat.No 07-410) was prepared into 2× kinase solution using 1× kinase buffer. The substrate Fluorescein-PKC (Invitrogen, Cat. No. PV3506) and ATP (working concentration: 1 mM) (Sigma, Cat. No. 2383-5G) were prepared into 2× substrate solution using 1×kinase buffer. The detection reagent was diluted to 2-fold the final concentration using an antibody diluent. 100 nL of compounds at different concentrations and 5 µL of kinase solution were added to each well of a 384-well plate, and the mixture was incubated at room temperature for 10 minutes. After the incubation was completed, 5 µL of substrate solution was added to each well, and the resulting mixture was reacted at room temperature for 90 minutes. After the reaction was completed, 10 µL of detection reagent was added to each well to terminate the reaction, and the mixture was incubated at room temperature for 60 minutes. Fluorescence readings were detected using an Envision instrument with excitation at 320 nm and emission at 520 nm and 495 nm. IC50 value was calculated using XLFit excel add-in version 5.4.0.8 software. The calculation formula of the inhibition rate was shown in formula 5-1, wherein max is the Ratio of the DMSO control, min is the Ratio of the negative control without enzyme, and sample is the Ratio of the compound. Ratio = RFU520nm /RFU495nm [formula] Inhibition% = (max−sample)/(max−min) × 100% [formula] Table 5-1 Inhibitory activity of test compounds against HPK1 kinase

[1] = system: IL-2 secretion by T cells; assay: IL-2 detection assay in cells (ELISA, pan-T cells isolated from PBMCs); type: cell-based; settings: IL-2, CD3 antibody-coated plate, 24 hours; for Maximum activation fold: maximum activation rate/control group
Description: 9. IL-2 detection assay in cells
Activating effect of compounds on IL-2 secretion by T cells was evaluated using the ELISA method. Frozen PBMCs were thawed, and pan-T cells were isolated and purified using a T cell sorting kit (Stemcell, 17951). The cells were resuspended in 1640 complete medium and incubated in a 37°C&5%CO2 incubator overnight. A 96-well plate coated with an anti-human CD3 antibody (Thermo, 16-0037-38) at a final concentration of 5 µg/mL was incubated at 37°C for 2 h. The overnight-cultured cells were collected by centrifugation, the supernatant was discarded, and the cells were resuspended in 1640 complete medium, and seeded in the CD3 antibody-coated 96-well plate at a density of 10^5cells/well. The compounds at different concentrations were added, and the mixture was incubated in a 37°C&5%CO2 incubator for 24 hours. After the incubation was completed, the resulting mixture was centrifuged at 1000 rpm for 1 minute to collect the supernatant, and IL-2 was detected according to the ELISA instructions. DMSO without compounds was used as the control group to calculate the activation rate of the compounds, and prism was used to fit the activation curve. Maximum activation fold = maximum activation rate/control group. Table 9-1 Results of IL-2 activation by test compounds

[2] = Pharmacokinetic test in rats; type: in vivo, SD rats; settings: rat, plasma
Description: Test example 7: Pharmacokinetic test in rats
Experimental animals: Male SD rats, 180-200 g, purchased from Chengdu Dossy Experimental Animals Co., Ltd. with the laboratory animal production license number of SCXK (CHUAN) 2020-030.
Experimental design: on the day of the experiment, the SD rats were randomly grouped according to their body weights. The animals were fasted but with water available overnight before the administration, and fed 4 h after the administration.
Vehicle for intragastric administration: 5% Solutol+5% TPGS+30% PEG400+60% (20% SBE-β-CD)
Blood was taken from the orbits of the […] at specified time points, and placed in an EDTAK2 centrifuge tube. Centrifugation was performed at 5000 rpm for 10 min, and the plasma was collected.
Blood sampling time points for the intravenous administration group were: 0, 5 min, 15 min, 30 min, 1 h, 2 h, 4 h, 6 h, 8 h and 24 h; blood sampling time points for the intragastric administration group were: 0, 5 min, 15 min, 30 min, 1 h, 2 h, 4 h, 6 h, 8 h and 24 h. Before analysis and detection, all the samples were stored at - 60°C or lower. The samples were analysed quantitatively by LC-MS/MS. Table 7-1 PK data of test compound drug in rats

[3] = Pharmacokinetic test in mice; type: in vivo, ICR mice; settings: mouse, plasma
Description: Test example 6: Pharmacokinetic test in mice
Experimental objective: In this experiment, a single dose of test substances was administered to ICR mice intravenously and intragastrically, the concentrations of the test compounds in plasma of mice were measured, and the pharmacokinetic characteristics and bioavailability of the test compounds in mice were evaluated.
Experimental animals: Male ICR mice, 20-35 g, purchased from Chengdu Dossy Experimental Animals Co., Ltd. (SCXK (CHUAN) 2020-030).
Experimental method: On the day of the experiment, the ICR mice were randomly grouped according to their body weights. The animals were fasted but with water available overnight before the administration, and fed 4 h after the administration.
Sampling: Blood was taken from the orbits of the mice at specified time points, and placed in an EDTAK2 centrifuge tube. Centrifugation was performed at 5000 rpm at 4°C for 10 min, and the plasma was collected.
Time points for plasma collection in G1 and G1-2 groups: 0, 5 min, 15 min, 30 min, 1 h, 2 h, 4 h, 7 h, and 24 h.
Time points for plasma collection in G2 and G2-2 groups: 0, 5 min, 15 min, 30 min, 1 h, 2 h, 4 h, 7 h, and 24 h.
Before analysis and detection, all the samples were stored at -60°C or lower. The samples were analysed quantitatively by LC-MS/MS. Table 6-1 PK data of test compound drug in mice

HPK1 protein = molecular target: T2, HPK1 protein (Homo sapiens, UniProt Q92918); assay: Detection of HPK1 protein expression level in Jurkat cells (24 h); type: cell-based; settings: 24 hours incubation
T2 construct: host or cells: Jurkat cells
T2 sequence (Q92918 whole entry): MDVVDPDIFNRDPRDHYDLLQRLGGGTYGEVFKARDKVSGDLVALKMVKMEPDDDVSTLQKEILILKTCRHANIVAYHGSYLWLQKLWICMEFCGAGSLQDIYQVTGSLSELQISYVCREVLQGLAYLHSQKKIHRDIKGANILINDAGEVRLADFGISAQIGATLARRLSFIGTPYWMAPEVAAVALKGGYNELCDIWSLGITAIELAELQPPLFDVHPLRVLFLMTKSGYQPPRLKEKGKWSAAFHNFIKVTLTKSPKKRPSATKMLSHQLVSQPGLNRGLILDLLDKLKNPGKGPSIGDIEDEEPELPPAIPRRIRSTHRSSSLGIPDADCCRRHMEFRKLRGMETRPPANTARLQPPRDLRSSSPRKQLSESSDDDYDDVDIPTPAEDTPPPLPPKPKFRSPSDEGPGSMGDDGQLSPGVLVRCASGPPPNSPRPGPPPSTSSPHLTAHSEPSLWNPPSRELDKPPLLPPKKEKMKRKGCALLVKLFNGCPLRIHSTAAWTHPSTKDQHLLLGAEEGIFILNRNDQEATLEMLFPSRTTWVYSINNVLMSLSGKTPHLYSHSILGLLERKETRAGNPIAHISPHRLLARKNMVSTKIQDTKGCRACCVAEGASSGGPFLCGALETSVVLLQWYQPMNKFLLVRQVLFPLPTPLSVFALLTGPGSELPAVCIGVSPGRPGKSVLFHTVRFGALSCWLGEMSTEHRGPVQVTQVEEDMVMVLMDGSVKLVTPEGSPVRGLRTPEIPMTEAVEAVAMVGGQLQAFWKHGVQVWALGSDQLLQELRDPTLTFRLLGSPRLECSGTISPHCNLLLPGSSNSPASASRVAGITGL
Description: Test example 4: Detection of HPK1 protein expression level in Jurkat cells (24 h)
Jurkat cells from ATCC were placed in a RPMI-1640 complete medium (supplemented with 10% FBS and 1% penicillin-streptomycin solution) and cultured at 37°C and 5% CO2. The cells in the logarithmic growth phase were collected, the cell density was adjusted to 5 × 10^5 cells/well with the culture medium, and the cells were added to a 6-well cell culture plate at a volume of 1 mL/well. The compound to be tested was prepared to 2-fold the final concentration, 1 mL of the compounds at different concentrations were added to administration wells, a medium containing 0.2% DMSO was added to control wells, and the plate was incubated at 37°C and 5% CO2 for 24 hours. The cells were collected into a 1.5 mL centrifuge tube, 30 µL of RIPA lysis buffer (containing 1X protease inhibitor cocktail) was added, and the cells were lysed on ice for 15 minutes and centrifuged at 12000 rpm/min at 4°C for 10 minutes. The supernatant was collected and the protein content was determined using the BCA method. The protein sample to be tested was diluted to 0.2 mg/mL, HPK1 was detected using a fully automated protein expression quantitative analyser (ProteinSimple), and the internal reference protein was β-actin (all antibodies were from CST). The software (Compass for SW) of the fully automated protein expression quantitative analyser was used to process the raw data and calculate the peak area after internal reference normalisation and the HPK1 degradation rate relative to the control group. The HPK1 degradation rate was calculated according to formula 4-1, where Aadministration well is the relative peak area of the administration group after internal reference normalisation, and Acontrol well is the relative peak area of the vehicle control group after internal reference normalisation. DC50 values were calculated using a four-parameter non-linear fitting model in Graphpad 8.3.0 software. HPK1_degradation % = 100−(Aadministration well/Acontrol well×100%) [formula] Table 4-1 Degradation activity of test compounds against HPK1 protein in Jurkat cells (24 h)

Row | SMILES | Activation fold at 100 nM concentration [1] | clearance ([2]; IV, 2.5 mg/kg) [mL/min/kg] | half-life ([2]; IV, 2.5 mg/kg) [h] | AUC ([2]; po, i. g., 10 mg/kg) [ng·h/mL] | Cmax ([2]; po, i. g., 10 mg/kg) [ng/mL] | half-life ([2]; po, i. g., 10 mg/kg) [h] | Maximum activation fold [1] | AUC ([3]; po, i. g., 10 mg/kg) [ng·h/mL] | Cmax ([3]; po, i. g., 10 mg/kg) [ng/mL] | half-life ([3]; po, i. g., 10 mg/kg) [h] | DC50 (HPK1 protein) [nM] | IC50 (HPK1 kinase) [nM] | further results
1 | O=C1CCC(c2ccc(N3CCN(CC4CCN(c5ccc(Nc6ccc(-c7cnc8cc(F)ccn78)c7c6C(=O)NC7)nc5)CC4)CC3)cc2F)C(=O)N1 (single isomer, unassigned) [Compound 1-1] | >10 |  |  |  |  |  |  |  |  |  |  |  | IC50 (HPK1 kinase; ATP working concentration: 1 mM, read-out: IC50): < 50 nM
2 | CN(C)Cc1nc(Nc2ccc(-c3cnc4cc(F)ccn34)c3c2C(=O)NC3)ccc1[C@@H]1CCOC1 [Control compound 1, reference compound] | <10 | 233 | 0.986 | 61.1 | 14.6 | 1.71 | <10 | 248 | 93.8 | 2.05 |  |  | clearance ([3]; IV, 2.5 mg/kg): 169 mL/min/kg; half-life ([3]; IV, 2.5 mg/kg): 0.89 h
3 | O=C1CC[C@H](NC(=O)c2cc3c(cc2F)N2CCN(CC4CCN(c5ccc(Nc6ccc(-c7cnc8cc(F)ccn78)c7c6C(=O)NC7)nc5)CC4)C[C@@H]2CC3)C(=O)N1 [Trifluoroacetic acid salt of compound 7] | >10 |  |  |  |  |  | >10 |  |  |  | < 20 |  | IC50 (HPK1 kinase; ATP working concentration: 1 mM): < 50 nM
4 | O=C1CCN(c2cc3c(cc2F)N2CCN(C4CC5(CCN(c6ccc(Nc7ccc(-c8cnc9cc(F)ccn89)c8c7C(=O)NC8)nc6)CC5)C4)C[C@H]2CC3)C(=O)N1 [Trifluoroacetic acid salt of compound 19] | >10 | 11 | 7.66 | 5860 | 465 | 7.17 | >10 | 50500 | 3700 | 6.68 | < 20 | < 50 | 
5 | N#Cc1ccn2c(-c3ccc(Nc4ccc(N5CCC(CN6CCN7c8cc(F)c(N9CCC(=O)NC9=O)cc8CC[C@@H]7C6)CC5)cn4)c4c3CNC4=O)cnc2c1 [Trifluoroacetic acid salt of compound 31] | >10 |  |  |  |  |  | >10 |  |  |  | < 20 | < 50 | clearance ([2]; IV, 1 mg/kg): 5.38 mL/min/kg; half-life ([2]; IV, 1 mg/kg): 4.88 h; AUC ([2]; po, i. g., 5 mg/kg): 4390 ng·h/mL; Cmax ([2]; po, i. g., 5 mg/kg): 464 ng/mL; half-life ([2]; po, i. g., 5 mg/kg): 4.48 h; AUC ([3]; po, i. g., 5 mg/kg): 6500 ng·h/mL; Cmax ([3]; po, i. g., 5 mg/kg): 553 ng/mL; half-life ([3]; po, i. g., 5 mg/kg): 3.03 h
6 | Cn1ccc2c(-c3ccc(Nc4ccc(N5CCC(CN6CCN7c8cc(F)c(N9CCC(=O)NC9=O)cc8CC[C@@H]7C6)CC5)cn4)c4c3CNC4=O)ccnc21 [Trifluoroacetic acid salt of compound 32] |  |  |  |  |  |  | >10 | 15800 | 1250 | 4.37 | < 20 | < 50 | 
7 | Cn1ccc2c(-c3ccc(Nc4ccc(N5CCC(CN6CCN7c8cc(F)c(N9CCC(=O)NC9=O)cc8CC[C@H]7C6)CC5)cn4)c4c3CNC4=O)ccnc21 [Trifluoroacetic acid salt of compound 35] |  |  |  |  |  |  | >10 | 37100 | 2650 | 12.1 | < 20 | < 50 | 
8 | N#Cc1ccn2c(-c3ccc(Nc4ccc(N5CCC(CN6CCN7c8cc(F)c(N9CCC(=O)NC9=O)cc8CC[C@H]7C6)CC5)cn4)c4c3CNC4=O)cnc2c1 [Trifluoroacetic acid salt of compound 39] | >10 | 6.58 | 4.21 | 7260 | 777 | 4.55 | >10 | 25600 | 2070 | 3.75 | < 20 | < 50 | 
